US9643917B2, “Water-soluble propofol derivatives and uses thereof” (JIANGSU NHWALUOKANG PHARMCEUTICAL RESEARCH AND DEVELOPMENT …, priority 2014, dated 2017)
Where two headings read alike, the source gives them in different places.

How the values were obtained:
[1] = rat plasma, 37° C., HPLC
Procedure: (§1) 0.1 ml samples were taken from each of the solutions, added respectively to 1 ml of blood plasma of rabbit (taken from New Zealand white rabbits, treated according to conventional methods, anticoagulated with heparin) or 1 ml of blood plasma of rat (taken from live SD rats, processed according to conventional methods, anti coagulated with heparin), homogeneously mixed, and placed in a thermostatic water bath at 37° C. for incubation with time being recorded. Samples were taken at different time points after the experiment began, and 2 ml of acetonitrile was immediately added. The samples were shaken and centrifuged for 5 min (15,000 rpm), and the supernatant was then taken for HPLC analysis.

[2] = rabbit plasma, 37° C., HPLC
Procedure: as §1

Structure (SMILES): CC(C)c1cccc(C(C)C)c1OC(=O)[C@H](F)CCN1CCCC1.Cl [E8, propofol 4-(pyrrolidin-1-yl)-2-(R)-2-fluorobutyrate hydrochloride]
- Dissociation percent 5 s [1]: 95.6%
- Dissociation percent 15 s [2]: 91.1%
- Dissociation percent 30 s [2]: 98.2%

Structure (SMILES): CC(C)c1cccc(C(C)C)c1OC(=O)C(F)CCCCCC(=O)[O-].CC(C)c1cccc(C(C)C)c1OC(=O)C(F)CCCCCC(=O)[O-].[Ca+2] (racemic) [F4, di[propofol 7-carboxyl-2-(R,S)-fluorocaprylate] calcium salt]
- Dissociation percent 5 s [1]: 63.8%
- Dissociation percent 15 s [2]: 48.3%
- Dissociation percent 30 s [2]: 61.7%

Structure (SMILES): CC(C)c1cccc(C(C)C)c1OC(=O)C(F)CCCC(=O)[O-].CC(C)c1cccc(C(C)C)c1OC(=O)C(F)CCCC(=O)[O-].[Zn+2] [F5, di[propofol 5-carboxyl-2-(S)-fluorohexanoate] zinc salt]
- Dissociation percent 5 s [1]: 63.2%
- Dissociation percent 15 s [1]: 80.3%
- Dissociation percent 15 s [2]: 34.9%
- Dissociation percent 30 s [2]: 58.8%

Structure (SMILES): CC(C)c1cccc(C(C)C)c1OC(=O)C(CCC(=O)[O-])C(F)(F)F.[Li+] [F3, propofol 4-carboxyl-2-(R)-2-trifluoromethyl valerate lithium salt]
- Dissociation percent 5 s [1]: 47.4%
- Dissociation percent 15 s [2]: 28.4%
- Dissociation percent 30 s [2]: 47.9%

Structure (SMILES): CC(C)c1cccc(C(C)C)c1OC(=O)C(F)C(=O)[O-].[Na+] [F8, Propofol-2-(R)-fluoropropionate monoester sodium salt]
- Dissociation percent 5 s [1]: 55.5%
- Dissociation percent 15 s [1]: 69.3%
- Dissociation percent 30 s ([1]; 30 s): 83.3%
- Dissociation percent 15 s [2]: 41.2%
- Dissociation percent 30 s [2]: 70.4%

Structure (SMILES): CC(C)NCC(CF)C(=O)Oc1c(C(C)C)cccc1C(C)C.CS(=O)(=O)O (racemic) [E6, propofol 3-N-isopropylamino-2-(R,S)-2-monofluoromethylpropionate methanesulfonate]
- Dissociation percent 5 s [1]: 24.2%
- Dissociation percent 15 s [1]: 40.1%
- Dissociation percent 15 s [2]: 27.1%
- Dissociation percent 30 s [2]: 44.3%

Structure (SMILES): CC(C)c1cccc(C(C)C)c1OC(=O)C(F)CCC(=O)[O-].[K+] [F2, propofol 4-carboxyl-2-(S)-fluorovalerate potassium salt]
- Dissociation percent 5 s [1]: 92.3%
- Dissociation percent 15 s [2]: 73.4%
- Dissociation percent 30 s [2]: 94.8%

Structure (SMILES): CC(C)c1cccc(C(C)C)c1OC(=O)C(CF)CP(=O)([O-])[O-].CC(C)c1cccc(C(C)C)c1OC(=O)C(CF)CP(=O)([O-])[O-].CC(C)c1cccc(C(C)C)c1OC(=O)C(CF)CP(=O)([O-])[O-].[Al+3].[Al+3] (racemic) [G6, tri[propofol 3-phosphoryl-2-(R,S)-2-monofluoromethylpropionate] dialuminum salt]
- Dissociation percent 5 s [1]: 22.1%
- Dissociation percent 15 s [1]: 39.7%
- Dissociation percent 15 s [2]: 27.1%
- Dissociation percent 30 s [2]: 44.3%

Structure (SMILES): CC(C)c1cccc(C(C)C)c1OC(=O)C(CF)CCCCCCC(=O)[O-].CC(C)c1cccc(C(C)C)c1OC(=O)C(CF)CCCCCCC(=O)[O-].CC(C)c1cccc(C(C)C)c1OC(=O)C(CF)CCCCCCC(=O)[O-].[Al+3] (racemic) [F6, tri[propofol 8-carboxyl-2-(R,S)-monofluoromethylpelargonate] aluminum salt]
- Dissociation percent 5 s [1]: 34.2%
- Dissociation percent 15 s [1]: 55.7%
- Dissociation percent 15 s [2]: 37.1%
- Dissociation percent 30 s [2]: 58.3%

Structure (SMILES): CC(C)c1cccc(C(C)C)c1OC(=O)[C@@H](CCOP(=O)([O-])[O-])C(F)(F)F.[Li+].[Li+] [G3, {1-[4-(2,6-diisopropylphenoxy)-4-oxo-3-(R)-3-trifluoromethyl-1-butyl]} phosphate monoester dilithium salt]
- Dissociation percent 5 s [1]: 38.7%
- Dissociation percent 15 s [2]: 21.7%
- Dissociation percent 30 s [2]: 43.6%
